Experimental data: ChEMBL document CHEMBL5346981, “Structure-Guided Design and Synthesis of a Pyridazinone Series of Trypanosoma cruzi Proteasome Inhibitors” (J Med Chem, 2023)
Calls of active or inactive are those of the source. The rule behind the calls is not given here.

What was measured:
[1] = Inhibition of chymotrypsin like activity in Trypanosoma cruzi Silvio X10/7 proteasome using Suc-LLVY-Rho-110-D-Proline peptide as substrate preincubated for 10 mins followed by substrate addition and measured for 30 mins by fluorescence based microplate reader analysis
[2] = Cytotoxicity against African green monkey Vero E6 cells assessed as reduction in cell viability; type: toxicity, cell-based; details: African green monkey (Chlorocebus sabaeus)
Blood [3] = assay: T>EC99 in Balb/c mouse assessed as time of blood total concentration in mouse exceeding EC99 for antiprotozoal activity against intracellular Trypanosoma cruzi infected in Vero cells at 50 mg/kg, po and measured upto 24 hrs by UPLC-MS/MS analysis; type: ADME, organism-based; details: in vivo
Trypanosoma cruzi [4] = assay: Antiprotozoal activity against intracellular Trypanosoma cruzi X10/7 A1 amastigotes infected in Vero cells assessed as parasite growth inhibition incubated for 72 to 96 hrs by Hoechst 33342 staining based analysis; type: functional, organism-based; details: X10/7 A1, Vero
Blood [5] = assay: T>EC99 in Balb/c mouse infected with Trypanosoma cruzi X10/7 A1 assessed as time of blood free drug concentration in mouse exceeding EC99 for antiprotozoal activity against intracellular Trypanosoma cruzi infected in Vero cells at 50 mg/kg, po and measured after 1 day by UPLC-MS/MS analysis; type: ADME, organism-based; details: in vivo, 24 h
Blood [6] = assay: T>EC99 in Balb/c mouse infected with Trypanosoma cruzi X10/7 A1 assessed as time of blood free drug concentration in mouse exceeding EC99 for antiprotozoal activity against intracellular Trypanosoma cruzi infected in Vero cells at 50 mg/kg, po and measured after 20 days by UPLC-MS/MS analysis; type: ADME, organism-based; details: in vivo, 480 h, time 20 day
Trypanosoma cruzi [7] = assay: Antitrypanosomal activity against Trypanosoma cruzi X10/7 A1 infected in Balb/c mouse assessed as parasite clearance at 100 mg/kg, po bid for 20 days by bioluminescence analysis; type: functional, organism-based; details: time 20.0 day

Row | SMILES | pIC50 [1] | EC50 [2] [µM] | further results
1 | O=C(NC1CC1)c1ccc(F)c(NC(=O)c2ccc(=O)n(Cc3ccccc3)n2)c1 | 5.8 | > 50.1 | 
2 | COc1ccc(Cn2nc(C(=O)Nc3ccc(F)c(C(=O)NC4CC4)c3)ccc2=O)cc1 | 7.5 | > 50.1 | 
3 | COc1ccc(Cn2nc(C(=O)Nc3ccc(F)c(C(=O)NCCN4CCOCC4)c3)ccc2=O)cc1 | 6.9 | > 50.1 | 
4 | COc1ccc(Cn2nc(C(=O)Nc3ccc(F)c(C(=O)N[C@H]4C[C@@H](N5CCOCC5)C4)c3)ccc2=O)cc1F | 8.1 |  | 
5 | O=C(Nc1cccc(C(=O)NC2CC2)c1)c1ccc(=O)n(Cc2ccccc2)c1 | 5.8 | > 50.1 | 
6 | COc1ccc(Cn2nc(C(=O)Nc3ccc(F)c(C(=O)NC4CC4)c3)ccc2=O)cc1F | 8.1 |  | T>EC99 (Blood [3]): 14 h
7 | COc1ncc(Cn2nc(C(=O)Nc3ccc(F)c(C(=O)NC4CC4)c3)ccc2=O)cc1F |  | > 50.1 | EC50 (Trypanosoma cruzi [4]): 31.6 µM
8 | COc1ccc(Cn2nc(C(=O)Nc3ccc(F)c(C(=O)N[C@H]4C[C@H](N5CCOCC5)C4)c3)ccc2=O)cc1F | 8.1 |  | 
9 | O=C(Nc1ccc(F)c(C(=O)NC2CC2)c1)c1ccc(=O)n(Cc2ccc(Cl)c(F)c2)n1 | 7.6 | > 50.1 | EC50 (Trypanosoma cruzi [4]): 0.251 µM
10 | COc1cccc(Cn2nc(C(=O)Nc3ccc(F)c(C(=O)NC4CC4)c3)ccc2=O)c1 | < 4 | > 50.1 | 
11 | O=C(NC1CC1)c1cccc(NC(=O)c2ccc(=O)n(Cc3ccccc3)n2)c1 | 6.2 |  | EC50 (Trypanosoma cruzi [4]): 10 µM
12 | CNC(=O)c1cc(NC(=O)c2ccc(=O)n(Cc3ccc(OC)cc3)n2)ccc1F |  |  | T>EC99 (Blood [5]): 5 h; T>EC99 (Blood [6]): < 2 h
13 | COc1ccc(Cn2nc(C(=O)Nc3ccc(F)c(C(=O)NC4CC4)c3)ccc2=O)cc1Cl | 8.5 | > 50.1 | 
14 | O=C(Nc1ccc(F)c(C(=O)NC2CC2)c1)c1ccc(=O)n(CC2CCCCC2)n1 | 6.4 | > 50.1 | 
15 | COc1ccc(Cn2nc(C(=O)Nc3ccc(F)c(C(=O)N[C@H]4C[C@H](OC)C4)c3)ccc2=O)cc1F | 8.2 |  | 
16 | CN(C(=O)c1ccc(=O)n(Cc2ccccc2)n1)c1cccc(C(=O)NC2CC2)c1 | < 4 | > 50.1 | 
17 | O=C(Nc1ccc(F)c(C(=O)NC2CC2)c1)c1ccc(=O)n(Cc2ccccc2)n1 | 6.8 | > 50.1 | EC50 (Trypanosoma cruzi [4]): 2.51 µM
18 | CNC(=O)c1cc(NC(=O)c2ccc(=O)n(Cc3ccc(OC)c(F)c3)n2)ccc1F | 8.2 |  | 
19 | COc1ccc(Cn2nc(C(=O)Nc3ccc(F)c(C(=O)N[C@H](C)CO)c3)ccc2=O)cc1F | 7.3 |  | EC50 (Trypanosoma cruzi [4]): 0.316 µM
20 | O=C(Cn1ccnc1[N+](=O)[O-])NCc1ccccc1 |  |  | Activity (Trypanosoma cruzi [7]): Active
21 | O=C(Nc1ccc(F)c(-c2cn3nc(N4CCOCC4)cnc3n2)c1)N1CCCC1 | 7.3 | > 50.1 | 
22 | CN(C(=O)c1cccc(NC(=O)c2ccc(=O)n(Cc3ccccc3)n2)c1)C1CC1 | 4.7 |  | 
23 | COc1ccc(Cn2nc(C(=O)Nc3ccc(F)c(C(=O)NC4CC4)c3)ccc2=O)cc1C#N | 8 | > 50.1 | 
